Read-outs that look alike come from different tables or passages of the source. Marks after values point to notes of the source that are not given here.
Columns and labels:
[1] = test system: Candida rugosa lipase; assay: Inhibition of Candida rugosa lipase toward emulsified triolein substrate PC/PI; assay type: biochemical
Experimental: Recombinant hormone-sensitive lipase protein isolated from a bacterial expression vector was pre-incubated with a compound of the invention (e.g., 100 μM) prior to the addition of substrate, emulsified triolein phosphatidylcholine/phosphatidylinositol (PC/PI), to initiate the reaction. At various time points, aliquots of the reaction were taken, and the level of glycerol used as an index of enzyme activity. Pharmacological specificity is determined by incubating test compound with other mammalian and non-mammalian lipase enzyme systems to assess inhibition of activity. The assay was conducted using triolein concentrations from 42 μM to 835 μM.

[2] = test system: C57/B16J lean mice; assay: Circulating free fatty acid levels in overnight-fasted normal mice; assay type: in vivo; settings: 50 mg/kg daily intraperitoneal for 2 weeks
Experimental: (§1) Male, C57/B16J lean mice were purchased from Jackson Laboratories, Bar Harbor, Me. Animals were housed and maintained in accordance with NIH guidelines and had free access to water and food ad libitum. Test compounds of the present invention were suspended in 0.25% methylcellulose (w/v in distilled water) and stored at −20° C. in single use aliquots. Animals received a daily dose via the intraperitoneal route of administration for 2 weeks. After the last dose, animals were fasted overnight. On the following morning, a 250 μl blood sample was drawn via the retro-orbital sinus into a tube containing an EDTA-saline solution and centrifuged at 1,200×g for 15 min. The plasma fraction was analyzed for non-esterified free fatty acid content (NEFA) using the NEFA C diagnostic kit (WAKO Chemicals USA, Richmond, Va.), and glycerol with the triglyceride GPO-Trinder diagnostic kit (Sigma) modified for use on a BM Hitachi 911 clinical chemistry analyzer. P-values from a student's t-test were calculated using the Prizm software data analysis program (Graphpad, Sorrento Calif.).

[3] = test system: KK/Ay mice; assay: Effects in fasted KK/Ay mice (plasma lipids and glucose); assay type: in vivo; settings: daily intraperitoneal for 2 weeks
Experimental: as §1
Male, KK/Ay mice were purchased from Clea Japan USA, Pennington, N.J. At 4 months of age, animals received daily intraperitoneal administration of 2α-benzoyloxy-5,7,8αH-eudesma-4(15), 11(13)-dien-8,12-olide for 2 weeks. As described in Example 10, fasting plasma NEFA values were obtained. In addition, cholesterol and triglycerides were measured using BM reagent assay kits on a BM Hitachi 911 clinical chemistry analyzer. […] Plasma glucose levels were measured using a Boehringer Mannheim reagent assay kits on a Boehringer Mannheim Hitachi 911 clinical chemistry w analyzer.

[4] = test system: rabbits; settings: cited from earlier work

Question: For `C=C1C(=O)O[C@@H]2C[C@@]3(C)C[C@@H](OC(=O)c4ccccc4)CC(=C)[C@@H]3C[C@H]12` [2α-benzoyloxy-5,7,8αH-eudesma-4(15),11(13)-dien-8,12-olide], which “inhibition of Candida rugosa lipase (in words)” value ([1]; emulsified triolein substrate PC/PI) is on record?
Answer: Its value is “did not inhibit enzyme activity”.

Question: What about the “% Inhibition (Candida lipase)” value ([1]; triolein substrate 42 μM) of the same compound?
Answer: The value was 40%.

Question: What about the “Candida Lipase + test compound (enzyme activity)” value (shortened to “Candida Lipase + test compound”) ([1]; triolein substrate 42 μM) of the same compound?
Answer: The value was 3.21.

Question: And the “% Inhibition (Candida lipase)” value ([1]; triolein substrate 83.5 μM)?
Answer: Its value is −12%.

Question: And the “Candida Lipase + test compound” value ([1]; triolein substrate 83.5 μM)?
Answer: The value was 11.59.

Question: What about the “% Inhibition (Candida lipase)” value ([1]; triolein substrate 167 μM) of the same compound?
Answer: The value was 6.3%.

Question: And the “Candida Lipase + test compound” value ([1]; triolein substrate 167 μM)?
Answer: The value was 14.14.

Question: What about the “% Inhibition (Candida lipase)” value ([1]; triolein substrate 334 μM) of the same compound?
Answer: The value was 3.6%.

Question: What about the “Candida Lipase + test compound” value ([1]; triolein substrate 334 μM) of the same compound?
Answer: Its value is 22.68.

Question: And the “% Inhibition (Candida lipase)” value ([1]; triolein substrate 501 μM)?
Answer: Its value is −1.7%.

Question: And the “Candida Lipase + test compound” value ([1]; triolein substrate 501 μM)?
Answer: Its value is 60.13.

Question: And the “% Inhibition (Candida lipase)” value ([1]; triolein substrate 668 μM)?
Answer: The value was −1.1%.

Question: And the “Candida Lipase + test compound” value ([1]; triolein substrate 668 μM)?
Answer: The value was 93.59.

Question: What about the “% Inhibition (Candida lipase)” value ([1]; triolein substrate 835 μM) of the same compound?
Answer: Its value is 1.0%.

Question: What about the “Candida Lipase + test compound” value ([1]; triolein substrate 835 μM) of the same compound?
Answer: The value was 89.71.

Question: What about the “NEFA (fasting plasma)” value ([2]; vehicle 1.108) of the same compound?
Answer: Its value is 0.808 mM.

Question: And the “Glycerol (fasting plasma)” value ([2]; vehicle 36)?
Answer: The value was 28^b mg/dl.

Question: What about the “% reduction NEFA” value ([2]; vs vehicle) of the same compound?
Answer: Its value is 27%.

Question: And the “fasting plasma NEFA” value [3]?
Answer: Its value is “significant reductions”.

Question: What about the plasma cholesterol [3] of the same compound?
Answer: The plasma cholesterol was “significant reductions”.

Question: What about the plasma glycerol [3] of the same compound?
Answer: Its plasma glycerol is “significant reductions”.

Question: What about the plasma triglycerides [3] of the same compound?
Answer: Its plasma triglycerides is “significant reductions”.

Question: What about the “fasting plasma glucose level” value ([3]; control mice 184±24 mg/dL, p <0.01) of the same compound?
Answer: Its value is 90 ± 29 mg/dL.

Question: What does the source list for `C=C1C(=O)O[C@@H]2C[C@@]3(C)CCC[C@H](C)C3=C[C@H]12` [alantolactone, 4,7,8αH-eudesma-5(6), 11(13)-dien-8,12-olide]?
Answer: effect on blood glucose ([4]; moderate dose): induce hypoglycemia; effect on hyperglycemia induced by food ([4]; rabbit, in vivo): inhibit hyperglycemia induced by food; effect on blood glucose ([4]; rabbits, high dose): induce hyperglycemia
